# Source: patent US20100298141A1, “SUBSTITUTED PYRIDINE N-OXIDE HERBICIDES” (E. I. DU PONT DE NEMOURS AND COMPANY, priority 2007, published 2010)
# Key:
# Assay in all cases: Test F preemergence test
# mustard = format: in vivo, Brassica nigra; conditions: scale 0 to 100
# Method in brief: (§1)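 Compounds in a non-phytotoxic solvent formulation with surfactant were applied before emergence after sowing, or, for sugarcane, also postemergence. Evaluation was visual, against controls, after 14 to 21 greenhouse days.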
# common mallow = format: in vivo, Malva sylvestris; conditions: scale 0 to 100
# Method in brief: as §1
# dallisgrass = format: in vivo, Paspalum dilatatum; conditions: scale 0 to 100
# Method in brief: as §1
# bermudagrass = format: in vivo, Cynodon dactylon; conditions: scale 0 to 100
# Method in brief: as §1
# guineagrass = format: in vivo, Panicum maximum; conditions: scale 0 to 100
# Method in brief: as §1
# common chickweed = format: in vivo, Stellaria media; conditions: scale 0 to 100
# Method in brief: as §1
# quackgrass = format: in vivo, Elytrigia repens; conditions: scale 0 to 100
# Method in brief: as §1
# common purslane = format: in vivo, Portulaca oleracea; conditions: scale 0 to 100
# Method in brief: as §1
# barnyardgrass = format: in vivo, Echinochloa crus-galli
# Method in brief: as §1
# prickly sida = format: in vivo, Sida spinosa; conditions: scale 0 to 100
# Method in brief: as §1
# kochia = format: in vivo, Kochia scoparia; conditions: preemergence, scale 0 to 100
# Method in brief: as §1
# common groundsel = format: in vivo, Senecio vulgaris; conditions: scale 0 to 100
# Method in brief: as §1
# purple nutsedge = format: in vivo, Cyperus rotundus; conditions: scale 0 to 100
# Method in brief: as §1
# broadleaf signalgrass = format: in vivo, Brachiaria platyphylla; conditions: scale 0 to 100
# Method in brief: as §1
# annual bluegrass = format: in vivo, Poa annua; conditions: scale 0 to 100
# Method in brief: as §1
# pitted morningglory = format: in vivo, Ipomoea lacunosa; conditions: scale 0 to 100
# Method in brief: as §1
# Virginia dayflower = format: in vivo, Commelina virginica; conditions: 16 g ai/ha, preemergence; scale 0 to 100
# Method in brief: as §1
# Canada horseweed = format: in vivo, Conyza canadensis; conditions: scale 0 to 100
# Method in brief: as §1
# naked crabgrass = format: in vivo, Digitaria nuda; conditions: scale 0 to 100
# Method in brief: as §1
compound,measurement,setting,value
CCn1nc(C(F)(F)F)c(CS(=O)(=O)c2cc(C)cc[n+]2[O-])c1OCC(F)(F)F [Compound 64],"Plant response rating, Black Mustard","mustard; 16 g ai/ha, preemergence",0
same,Black Mustard plant response rating,"mustard; 62 g ai/ha, Preemergence",80
same,Black Mustard plant response rating,"mustard; 125 g ai/ha, preemergence",90
same,"Plant response rating, Black Mustard","mustard; Preemergence, 31 g ai/ha",0
same,"Plant response rating, Mallow","common mallow; 16 g ai/ha, preemergence",0
same,Mallow plant response rating,"common mallow; 62 g ai/ha, Preemergence",75
same,Mallow plant response rating,"common mallow; 125 g ai/ha, preemergence",100
same,"Plant response rating, Mallow","common mallow; Preemergence, 31 g ai/ha",35
same,"Plant response rating, Dallisgrass","dallisgrass; 16 g ai/ha, preemergence",0
same,Dallisgrass plant response rating,"dallisgrass; 62 g ai/ha, Preemergence",70
same,Dallisgrass plant response rating,"dallisgrass; 125 g ai/ha, preemergence",90
same,"Plant response rating, Dallisgrass","dallisgrass; Preemergence, 31 g ai/ha",35
same,"Plant response rating, Bermudagrass","bermudagrass; 16 g ai/ha, preemergence",0
same,Bermudagrass plant response rating,"bermudagrass; 62 g ai/ha, Preemergence",75
same,Bermudagrass plant response rating,"bermudagrass; 125 g ai/ha, preemergence",90
same,"Plant response rating, Bermudagrass","bermudagrass; Preemergence, 31 g ai/ha",25
same,"Plant response rating, Guineagrass","guineagrass; 16 g ai/ha, preemergence",80
same,Guineagrass plant response rating,"guineagrass; 62 g ai/ha, Preemergence",100
same,Guineagrass plant response rating,"guineagrass; 125 g ai/ha, preemergence",100
same,"Plant response rating, Guineagrass","guineagrass; Preemergence, 31 g ai/ha",98
same,"Plant response rating, Chickweed","common chickweed; 16 g ai/ha, preemergence",65
same,Chickweed plant response rating,"common chickweed; 62 g ai/ha, Preemergence",100
same,Chickweed plant response rating,"common chickweed; 125 g ai/ha, preemergence",100
same,"Plant response rating, Chickweed","common chickweed; Preemergence, 31 g ai/ha",100
same,"Plant response rating, Quackgrass","quackgrass; 16 g ai/ha, preemergence",40
same,Quackgrass plant response rating,"quackgrass; 62 g ai/ha, Preemergence",95
same,Quackgrass plant response rating,"quackgrass; 125 g ai/ha, preemergence",95
same,"Plant response rating, Quackgrass","quackgrass; Preemergence, 31 g ai/ha",75
same,"Plant response rating, Purslane","common purslane; 16 g ai/ha, preemergence",0
same,Purslane plant response rating,"common purslane; 62 g ai/ha, Preemergence",30
same,Purslane plant response rating,"common purslane; 125 g ai/ha, preemergence",60
same,"Plant response rating, Purslane","common purslane; Preemergence, 31 g ai/ha",10
same,"Plant response rating, Barnyardgrass","barnyardgrass; 16 g ai/ha, preemergence, scale 0 to 100 (0 no effect, 100 complete control)",65
same,Barnyardgrass plant response rating,"barnyardgrass; 62 g ai/ha, Preemergence, scale 0 to 100",100
same,Barnyardgrass plant response rating,"barnyardgrass; 125 g ai/ha, preemergence, scale 0 to 100",100
same,"Plant response rating, Barnyardgrass","barnyardgrass; Preemergence, 31 g ai/ha, scale 0 to 100",80
same,"Plant response rating, Prickly Sida","prickly sida; 16 g ai/ha, preemergence",0
same,Prickly Sida plant response rating,"prickly sida; 62 g ai/ha, Preemergence",30
same,Prickly Sida plant response rating,"prickly sida; 125 g ai/ha, preemergence",75
same,"Plant response rating, Prickly Sida","prickly sida; Preemergence, 31 g ai/ha",0
same,"Plant response rating, Kochia",kochia; 16 g ai/ha,0
same,Kochia plant response rating,kochia; 125 g ai/ha,75
same,"Plant response rating, Groundsel","common groundsel; 16 g ai/ha, preemergence",0
same,Groundsel plant response rating,"common groundsel; 62 g ai/ha, Preemergence",15
same,Groundsel plant response rating,"common groundsel; 125 g ai/ha, preemergence",80
same,"Plant response rating, Groundsel","common groundsel; Preemergence, 31 g ai/ha",0
same,"Plant response rating, Purple Nutsedge","purple nutsedge; 16 g ai/ha, preemergence",20
same,Purple Nutsedge plant response rating,"purple nutsedge; 62 g ai/ha, Preemergence",50
same,Purple Nutsedge plant response rating,"purple nutsedge; 125 g ai/ha, preemergence",80
same,"Plant response rating, Purple Nutsedge","purple nutsedge; Preemergence, 31 g ai/ha",50
same,"Plant response rating, Signalgrass","broadleaf signalgrass; 16 g ai/ha, preemergence",30
same,Signalgrass plant response rating,"broadleaf signalgrass; 125 g ai/ha, preemergence",100
same,"Plant response rating, Signalgrass","broadleaf signalgrass; Preemergence, 62 g ai/ha",100
same,"Plant response rating, Signalgrass","broadleaf signalgrass; Preemergence, 31 g ai/ha",30
same,"Plant response rating, Bluegrass","annual bluegrass; 16 g ai/ha, preemergence",0
same,Bluegrass plant response rating,"annual bluegrass; 62 g ai/ha, Preemergence",90
same,Bluegrass plant response rating,"annual bluegrass; 125 g ai/ha, preemergence",90
same,"Plant response rating, Bluegrass","annual bluegrass; Preemergence, 31 g ai/ha",0
same,"Plant response rating, Morningglory","pitted morningglory; 16 g ai/ha, preemergence",0
same,Morningglory plant response rating,"pitted morningglory; 62 g ai/ha, Preemergence",0
same,Morningglory plant response rating,"pitted morningglory; 125 g ai/ha, preemergence",35
same,"Plant response rating, Morningglory","pitted morningglory; Preemergence, 31 g ai/ha",0
same,"Plant response rating, Dayflower",Virginia dayflower,0
same,"Plant response rating, Horseweed","Canada horseweed; 16 g ai/ha, preemergence",0
same,Horseweed plant response rating,"Canada horseweed; 62 g ai/ha, Preemergence",50
same,Horseweed plant response rating,"Canada horseweed; 125 g ai/ha, preemergence",100
same,"Plant response rating, Horseweed","Canada horseweed; Preemergence, 31 g ai/ha",0
same,"Plant response rating, Crabgrass, Naked","naked crabgrass; 16 g ai/ha, preemergence",30
same,"Crabgrass, Naked plant response rating","naked crabgrass; 62 g ai/ha, Preemergence",100
same,"Crabgrass, Naked plant response rating","naked crabgrass; 125 g ai/ha, preemergence",100
same,"Plant response rating, Crabgrass, Naked","naked crabgrass; Preemergence, 31 g ai/ha",40
